One series has as its system HeLa. Nature of the series: Cytotoxicity against human HeLa cells assessed as decrease in cell viability measured after 72 hrs by WST-8 assay. The format is functional, cell-based. On the technique in general: Tetrazolium dyes change colour on reduction, which living cells bring about.
For series [1], the system named is PANC-1. Nature of the series: Anti-austerity activity against nutrient-deprived human PANC-1 cells assessed as cell death incubated for 24 hrs by WST-8 assay. It counts as functional.
The subject of series [2] is PANC-1. Briefly: Cytotoxicity against nutrient-rich DMEM cultured human PANC-1 cells incubated for 24 hrs by WST-8 assay. Conditions: panc-1, 24 h. It counts as cell-based.
For series [3], the system named is PANC-1. Nature of the series: Induction of morphological changes in human PANC-1 cells cultured in nutrient-deprived medium assessed as cell death at 20 uM measured after 24 hrs by ethidium bromide/acridine orange staining based phase contrast microscopy relative to control. The format is functional.
Series [4] concerns PANC-1. Briefly: Inhibition of cell migration in human PANC1 cells assessed as open wound area at 20 uM cultured in nutrient rich DMEM medium measured after 24 hrs by quantitative real-time imaging based wound healing assay (reference value: 50%). The format is functional. Further details: scale not given: the % may be the effect or the level left.
The test system of series [5] is PANC-1. Briefly: Inhibition of cell migration in human PANC1 cells assessed as open wound area at 40 uM cultured in nutrient rich DMEM medium measured after 24 hrs by quantitative real-time imaging based wound healing assay (reference value: 50%). The format is functional. Further details: scale not given: the % may be the effect or the level left.
Series [6] deals with PANC-1. Briefly: Inhibition of cell migration in human PANC1 cells assessed as open wound area at 20 uM cultured in nutrient rich DMEM medium measured after 48 hrs by quantitative real-time imaging based wound healing assay relative to control. It counts as functional. Further details: scale not given: the % may be the effect or the level left.
Series [7] has as its system PANC-1. Briefly: Inhibition of cell migration in human PANC1 cells assessed as open wound area at 40 uM cultured in nutrient rich DMEM medium measured after 48 hrs by quantitative real-time imaging based wound healing assay relative to control. It counts as functional. Further details: scale not given: the % may be the effect or the level left.
Series [8] relates to PANC-1. Nature of the series: Inhibition of colony formation in human PANC-1 cells at 10 uM cultured in nutrient rich DMEM medium measured after 24 hrs by crystal violet staining based assay relative to control. It counts as functional.
For series [9], the system named is PANC-1. Briefly: Inhibition of colony formation in human PANC-1 cells at 20 uM cultured in nutrient rich DMEM medium measured after 24 hrs by crystal violet staining based assay relative to control. It counts as functional.
For series [10], the system named is PANC-1. Nature of the series: Inhibition of colony formation in human PANC-1 cells at 40 uM cultured in nutrient rich DMEM medium measured after 24 hrs by crystal violet staining based assay relative to control. It counts as functional.

By IC50 is commonly meant the concentration that inhibits the measured activity by half. Regarding `COc1cc(O)c(-c2c(C)cc(OC)c3c(OC)cccc23)c2c1C(C)=N[C@H](C)C2`, the IC50 with HeLa is over 100 µM. The PC50 with PANC-1 [1] worked out at 46.8 µM.

With `COc1cc(C[C@H]2C(=O)OC[C@@H]2Cc2ccc(OC)c(OC)c2)ccc1O` [ARCTIGENIN], in the series with PANC-1 [1], the PC50 was determined as 0.83 µM.

Usually inhibition stands for the drop in the measured response relative to a control, in per cent. Regarding `COc1cc(OC)c(-c2ccc(O)c3c(OC)cc(C)cc23)c2c1C(C)=N[C@@H](C)C2`, the Activity result was “Dose-dependent effect” in the series on HeLa; “Non-Toxic” in the series on PANC-1 [2]; 100% in the series on PANC-1 [3]; 62% in the series on PANC-1 [4]; 77% with PANC-1 [5]; 25% in the series on PANC-1 [6]. The Activity in the series with PANC-1 [7] amounted to 70%. For the same molecule, the IC50 with HeLa was 7.2 µM. Also, the PC50 in the series on PANC-1 [1] is 13.3 µM. Further, the inhibition at 10 µM with PANC-1 [8] turned out to be 63%. Moreover, in the series on PANC-1 [9], 20 µM produced 95% inhibition. Also, in the series on PANC-1 [10], testing at 40 µM gave an inhibition of 100%.

Take `COc1cccc2c1C(=O)C(=O)C(C)=C2c1c(OC)cc(O)c2c1C[C@H](C)N[C@H]2C`: the IC50 with HeLa was 84.3 µM. The PC50 in the series with PANC-1 [1] came out at 28.5 µM.

As for `COc1cc(OC)c(-c2c(C)cc(OC)c3c(OC)cccc23)c2c1C(C)=N[C@H](C)C2`, the 50% inhibitory concentration (IC50) with HeLa was 46.9 µM. Further, the PC50 in the series on PANC-1 [1] turned out to be 64.5 µM.

For the molecule `COc1cc(OC)c(-c2ccc(OC)c3c(OC)cc(C)cc23)c2c1C(C)=N[C@@H](C)C2` [ANCISTROEALAINE A], the PC50 with PANC-1 [1] turned out to be 18.8 µM.
